Measured values as given in patent US8735415B2, “Acid addition salts of (3,5-Bis trifluoromethyl)-N-[4-methyl-3-(4-pyridin-3yl-pyrimidin-2ylamino)-phenyl]-benzamide” (Natco Pharma Limited, priority 2004, dated 2014).
≈ marks a conversion by molar mass, not a printed value.

How the values were obtained:
[1] = Solubility by the shake flask method; settings: for Solubility (mg/ml): Medium: Water
Description: General conditions: Room temperature (25° C.), stirring speed: 200 RPM, Analytical method: UV

[2] = Stability under high humidity conditions (water content by Karl-Fischer method); format: physicochemical; settings: for Final moisture content - After 48 hours at 25° C. at humidity of 60%: humidity 60%; for Final moisture content - After 48 hours at 25° C. at humidity of 60% / Final moisture content - After 48 hours at 40° C. at humidity of 75% / Initial moisture content (%): Karl-Fischer; for Final moisture content - After 48 hours at 40° C. at humidity of 75%: humidity 75%; for Initial moisture content (%): before storage; for Hygroscopicity (conclusion in words): conclusion from Table 1
Mice = test: Maximum tolerated dose (MTD) for 14 days; format: in vivo; settings: for MTD (mg/kg, po): Mice, 14 days
From the text: Maximum Tolerated Dose—Non-Toxic Nature

[3] = Flow properties, angle of repose; format: physicochemical
[4] = test system: K562 cell line, chronic myelogenous leukemia (CML); test: Activity in cell culture, K562 cell proliferation; format: cell-based; settings: for IC50: K562, 0.312×10^5 cells/ml, 72 Hrs, 10 μM to 0.156 μM; for Potency in inhibiting cell proliferation compared with Imatinib: K562
[5] = test system: T315I cell line, chronic myelogenous leukemia (CML) mutant; test: Activity in cell culture, T315I cell proliferation; format: cell-based; settings: for IC50: 0.625×10^5 cells/ml, 10 μM to 0.156 μM
[6] = Bioavailability study in mice; format: in vivo
[7] = 0.1N HCl, 25 °C, simulated gastric fluid, thermodynamic from solid

SMILES | Solubility (mg/ml) ([1]; 25° C., 200 RPM, UV) | Final moisture content - After 48 hours at 25° C. at humidity of 60% [2] [%] | Final moisture content - After 48 hours at 40° C. at humidity of 75% [2] [%] | Initial moisture content (%) [2] [%] | Hygroscopicity (conclusion in words) [2] | solubility [1, 7] [µg/mL] | MTD (mg/kg, po) (Mice) | Angle of Repose (degrees °) [3] [degrees °] | Potency in inhibiting cell proliferation compared with Imatinib [4] | Potency in inhibiting cell proliferation compared with Imatinib [5] | also measured
Cc1ccc(NC(=O)c2cc(C(F)(F)F)cc(C(F)(F)F)c2)cc1Nc1nccc(-c2cccnc2)n1.Cl [(3,5-Bis trifluoromethyl)-N-[4-methyl-3-(4-pyridin-3-yl-pyrimidin-2-ylamino)-phenyl]-benzamide hydrochloride] | Almost no | 0.7 | 0.7 | 0.6 | non-hygroscopic | – | – | – | – | – | solubility ([1]; Medium: 0.1N HCl, 25° C., 200 RPM, UV): 13.4 µg/mL
CS(=O)(=O)O.Cc1ccc(NC(=O)c2cc(C(F)(F)F)cc(C(F)(F)F)c2)cc1Nc1nccc(-c2cccnc2)n1 [(3,5-Bis trifluoromethyl)-N-[4-methyl-3-(4-pyridin-3-yl-pyrimidin-2-ylamino)-phenyl]-benzamide methane sulfonate] | – | 0.7 | 0.7 | 0.6 | non-hygroscopic | – | – | – | – | – | –
Cc1ccc(NC(=O)c2cc(C(F)(F)F)cc(C(F)(F)F)c2)cc1Nc1nccc(-c2cccnc2)n1 [AN-019, (3,5-Bistrifluoromethyl)-N-[4-methyl-3-(4-pyridin-3-yl-pyrimidin-2-ylamino)-phenyl]-benzamide] | Almost no | – | – | – | – | 1.3 (≈ 2.51 µM) | 500.0 mg/kg, po | 41.57 | more potent than Imatinib | more potent than Imatinib | IC50 ([4]; Homo sapiens, K562, 72 h): 0.206 µM; IC50 ([5]; 72 h): 0.0993 µM; AUC [6]: 611.46 ng·h/mL; Cmax ([6]; mouse, in vivo): 93.7 ng/mL; Tmax ([6]; mouse, in vivo): 6 h
Cc1ccc(NC(=O)c2cc(C(F)(F)F)cc(C(F)(F)F)c2)cc1Nc1nccc(-c2cccnc2)n1.Cc1ccc(S(=O)(=O)O)cc1 [AN-019T, (3,5-Bis trifluoromethyl)-N-[4-methyl-3-(4-pyridin-3-yl-pyrimidin-2-ylamino)-phenyl]-benzamide 4-toluene sulfonate monohydrate] | – | 2.7 | 2.8 | 2.7 | non-hygroscopic | 40.2 | 1000.0 mg/kg, po | 30.74 | more potent than Imatinib | more potent than Imatinib | Solubility compared with the other salts ([1]; conclusion from Table 2): improved solubility properties among other salts investigated; solubility ([1]; water, 25 °C, thermodynamic from solid): 7.8 µg/mL; Toxicity compared with the base (Mice; conclusion from Table 3, mice): substantially less toxic than the corresponding base; Flow properties compared with the base ([3]; conclusion from Table 4): a lower angle of repose and better flow properties when compared with corresponding base; IC50 ([4]; monohydrate): 0.265 µM; IC50 ([5]; 72 Hrs, monohydrate): 0.109 µM
